# Data from US6506766B1 (Abbott Laboratories, priority 1998, dated 2003).
# Tests used:
# [1] = target: T1, human glucocorticoid receptor-α [GRX] isoform (Homo sapiens, UniProt P04150); assay: Radioligand binding with human glucocorticoid receptor cytosol ([3H]-dexamethasone competition); conditions: GRX cytosol expressed in insect SF21 cells, [3H]-Dex ~0.9 nM, 4° C. overnight; Ki by Cheng-Prusoff, KL ~[…]; read-out: Ki (nM) GR
# T1 construct: host or cells: insect SF21 cells (baculovirus)
# T1 sequence (P04150 1-777): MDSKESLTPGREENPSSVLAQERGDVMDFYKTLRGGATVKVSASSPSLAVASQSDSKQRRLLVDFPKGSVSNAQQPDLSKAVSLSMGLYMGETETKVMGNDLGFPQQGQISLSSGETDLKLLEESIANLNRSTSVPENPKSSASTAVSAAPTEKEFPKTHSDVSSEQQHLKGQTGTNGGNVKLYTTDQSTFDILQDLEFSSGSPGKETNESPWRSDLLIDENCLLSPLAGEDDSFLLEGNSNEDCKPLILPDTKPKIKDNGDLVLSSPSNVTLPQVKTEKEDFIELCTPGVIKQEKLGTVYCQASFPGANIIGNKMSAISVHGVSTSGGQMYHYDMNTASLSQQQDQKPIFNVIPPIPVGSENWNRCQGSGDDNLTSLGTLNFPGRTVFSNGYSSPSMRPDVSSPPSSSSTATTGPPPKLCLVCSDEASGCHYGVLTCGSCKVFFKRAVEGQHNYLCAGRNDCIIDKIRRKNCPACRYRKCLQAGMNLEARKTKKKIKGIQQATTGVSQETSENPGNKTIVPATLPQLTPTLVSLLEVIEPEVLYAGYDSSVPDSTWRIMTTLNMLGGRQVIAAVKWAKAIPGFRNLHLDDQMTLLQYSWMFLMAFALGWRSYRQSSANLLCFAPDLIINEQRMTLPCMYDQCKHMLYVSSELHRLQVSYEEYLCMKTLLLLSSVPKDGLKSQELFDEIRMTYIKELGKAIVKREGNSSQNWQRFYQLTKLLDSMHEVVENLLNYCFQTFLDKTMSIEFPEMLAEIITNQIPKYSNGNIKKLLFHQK
# [2] = target: T2, human progesterone receptor-A [PRA] isoform (Homo sapiens, UniProt P06401); assay: Radioligand binding with human progesterone receptor cytosol ([3H]-progesterone competition); conditions: PRA cytosol expressed in insect SF21 cells, [3H]Prog ~0.8 nM, 4° C. overnight; Ki by Cheng-Prusoff, KL ~4.5 nM; read-out: Ki (nM) PR
# T2 construct: host or cells: insect SF21 cells (baculovirus)
# T2 sequence (P06401 1-769 isoform P06401-2): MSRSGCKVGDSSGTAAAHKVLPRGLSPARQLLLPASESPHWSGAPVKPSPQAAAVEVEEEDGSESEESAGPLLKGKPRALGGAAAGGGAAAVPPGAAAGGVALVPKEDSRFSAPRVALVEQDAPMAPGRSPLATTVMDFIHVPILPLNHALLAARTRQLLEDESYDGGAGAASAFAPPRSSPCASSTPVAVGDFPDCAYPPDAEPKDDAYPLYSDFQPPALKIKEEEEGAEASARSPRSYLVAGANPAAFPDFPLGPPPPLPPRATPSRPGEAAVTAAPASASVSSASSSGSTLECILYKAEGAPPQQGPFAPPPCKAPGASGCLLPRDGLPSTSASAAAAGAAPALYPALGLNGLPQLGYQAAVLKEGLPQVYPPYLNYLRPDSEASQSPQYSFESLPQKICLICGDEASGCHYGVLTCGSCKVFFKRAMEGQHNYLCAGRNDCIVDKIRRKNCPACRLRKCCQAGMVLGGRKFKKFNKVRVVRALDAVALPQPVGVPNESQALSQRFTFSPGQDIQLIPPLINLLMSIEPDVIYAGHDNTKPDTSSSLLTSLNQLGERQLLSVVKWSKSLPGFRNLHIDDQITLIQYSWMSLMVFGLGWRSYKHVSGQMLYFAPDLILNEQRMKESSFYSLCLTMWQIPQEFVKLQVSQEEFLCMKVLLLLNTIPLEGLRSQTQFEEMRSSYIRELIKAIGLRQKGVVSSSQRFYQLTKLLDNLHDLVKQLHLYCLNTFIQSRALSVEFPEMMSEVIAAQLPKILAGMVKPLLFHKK
SMILES,Ki [1] [nM],Ki [2] [nM]
"C=CCC1Oc2cccc(OC)c2-c2ccc3c(c21)C(C)=CC1(CCOCC1)N3 (stereo not shown) [Example 359, 2,5-Dihydro-10-methoxy-2,2-[spiro(tetrahydro-4-pyranyl)]-4-methyl-5-ally-1H-[1]benzopyrano[3,4-f]quinoline]",11.3,2220
"CNCC1=CC(C2Oc3cccc(OC)c3-c3ccc4c(c32)C(C)=CC(C)(C)N4)CCC1 [Example 170, rel (5R, 3′R) 2,5-Dihydro-10-methoxy-5-(1-(N-methylamino)methyl-3-cyclohexenyl)2,2,4-trimethyl-1H-[1]benzoppyrano[3,4-f]quinoline]",82,≥ 10000
"COc1c(O)ccc2c1-c1ccc3c(c1C(c1c(F)c(F)c(F)c(F)c1F)O2)C(C)=CC(C)(C)N3 (racemic) [Example 269, (±)2,5-Dihydro-9-hydroxy-10-methoxy-2,2,4-trimethyl-5-(2,3,4,5,6-pentafluorophenyl)-1H-[1]benzopyrano[3,4-f]quinoline]",17.1,2470
"COc1cccc2c1-c1ccc3c(c1C(CCOC(=O)N1CCOCC1)O2)C(C)=CC(C)(C)N3 (stereo not shown) [Example 201, 2,5-Dihydro-10-methoxy-5-(2-(N-morpholinocarbonyloxy)ethyl)-2,2,4-trimethyl-1H-[1]benzopyrano[3,4-f]quinoline]",114,≥ 10000
"CC/C=C/CC1Oc2cccc(OC)c2-c2ccc3c(c21)C(C)=CC(C)(C)N3 (stereo not drawn) [Example 192, trans 2,5-Dihydro-10-methoxy-5-(2-penten-1-yl)-2,2,4-trimethyl-1H-[1]benzopyrano[3,4-f]quinoline]",3.1,≥ 10000
"C=CCC1Oc2ccc(OCC#N)c(OC)c2-c2ccc3c(c21)C(C)=CC(C)(C)N3 (racemic) [Example 377, (+/−)2,5-Dihydro-9-cyanomethoxy-10-methoxy-2,2,4-trimethyl-5-allyl-1H-[1]benzopyrano[3,4-f]quinoline]",51,3080
COc1cccc2c1-c1ccc3c(c1C(=Cc1cccc(Cl)n1)O2)C(C)=CC(C)(C)N3 [Example 352],58,≥ 10000
"COc1c(O)ccc2c1-c1ccc3c(c1C(=Cc1ccccc1)O2)C(C)=CC(C)(C)N3 [Example 430, 9-Hydroxy-10-methoxy-5-(phenylmethylene)-2,2,4-trimethyl-1H-2,5-dihydro-[1]benzopyrano[3,4-f]quinoline]",4.8,281
"C=CCC1Oc2c(C)cc(C)c(OC)c2-c2ccc3c(c21)C(C)=CC(C)(C)N3 (stereo not shown) [Example 308, 10-Methoxy-7-methyl-9-methyl-5-(3-propenyl)-2,2,4-trimethyl-1H-2,5-dihydro-[1]benzopyrano[3,4-f]quinoline]",50.8,960
"CNC(=O)OC/C=C/CC1Oc2cccc(OC)c2-c2ccc3c(c21)C(C)=CC(C)(C)N3 (stereo not shown) [Example 197, (E) 2,5-Dihydro-10-methoxy-5-(4-(N-methylaminocarbonyloxy)-2-buten-1-yl)-2,2,4-trimethyl-1H-[1]benzopyrano[3,4-f]quinoline]",28,≥ 10000
"C=CCC1Oc2cccc(OC(F)(F)Br)c2-c2ccc3c(c21)C(C)=CC(C)(C)N3 (stereo not shown) [Example 83, 10-(Bromodifluoromethoxy)-2,5-dihyro-2,2,4-trimethyl-5-(2-propenyl)-1H-[1]benzopyrano[3,4-f]quinoline]",54.8,2210
"C=C(CO)CC1Oc2ccc(O)c(OC)c2-c2ccc3c(c21)C(C)=CC(C)(C)N3 (stereo not shown) [Example 280, 2,5-Dihydro-9-hydroxy-10-methoxy-2,2,4-trimethyl-5-(2-hydroxymethyl-3-propenyl)-1H-[1]benzopyrano[3,4-f]quinoline]",1.6,≥ 10000
"COc1c(O)ccc2c1-c1ccc3c(c1C(C(C)C)O2)C(C)=CC(C)(C)N3 (stereo not shown) [Example 267, 2,5-Dihydro-9-hydroxy-10-methoxy-2,2,4-trimethyl-5-(2-propyl)-1H-[1]benzopyrano[3,4-f]quinoline]",0.79,938
"COc1cccc2c1-c1ccc3c(c1C(CC1CO1)O2)C(C)=CC(C)(C)N3 (stereo not shown) [Example 175, 2,5-Dihydro-10-methoxy-5-(1,2-epoxy-3-propenyl)-2,2,4-trimethyl-1H-[1]benzopyrano[3,4-f]quinoline]",44,7700
"C=CCC1Oc2ccc(OC)c(OC)c2-c2ccc3c(c21)C(C)=CC(C)(C)N3 (stereo not shown) [Example 290, 9,10-Dimethoxy-5-(3-propenyl)-2,2,4-trimethyl-1H-2,5-dihydro-[1]benzopyrano[3,4-f]quinoline]",12.1,611
C=CCC1Oc2ccc(OC(=O)CCCC(=O)N3CCCCC3)c(OC)c2-c2ccc3c(c21)C(C)=CC(C)(C)N3 (stereo not shown) [Example 439],1.2,202
"COc1cccc2c1-c1ccc3c(c1[C@@H]([C@@H]1C=C(CO)CCC1)O2)C(C)=CC(C)(C)N3 [Example 156, (+) (5R,3′S) 2,5-Dihydro-10-methoxy-5-(1-hydroxymethyl-3-cyclohexenyl)-2,2,4-trimethyl-1H-[1]benzopyrano[3,4-f]quinoline]",0.9,4100

# Now from value to compound:
Ki [1] [nM],Ki [2] [nM],SMILES
1.5,1430,"COc1c(O)ccc2c1-c1ccc3c(c1C(c1ccc(F)cc1)O2)C(C)=CC(C)(C)N3 (stereo not shown) [Example 255, 2,5-Dihydro-9-hydroxy-10-methoxy-2,2,4-trimethyl-5-(4-fluorophenyl)-1H-[1]benzopyrano[3,4-f]quinoline]"
5.6,3670,"C=Cc1cccc2c1-c1ccc3c(c1C(c1ccccc1)O2)C(C)=CC(C)(C)N3 (stereo not shown) [Example 333, 2,5-Dihydro-10-ethenyl-5-phenyl-2,2,4-trimethyl-1H-[1]benzopyrano[3,4-f]quinoline]"
5.2,4700,"C=CCC1Oc2cccc(SC)c2-c2ccc3c(c21)C(C)=CC(C)(C)N3 (stereo not shown) [Example 343, 2,5-Dihydro-5-(3-propenyl)-10-methylthio-2,2,4-trimethyl-1H-[1]benzopyrano[3,4-f]quinoline]"
8.7,3000,"CC1=CC(C)(C)Nc2ccc3c(c21)C(c1ccccc1)Oc1cccc(OC(F)F)c1-3 (stereo not shown) [Example 345, 10-(Difluoromethoxy)-2,5-dihydro-5-phenyl-2,2,4-trimethyl-1H-[1]benzopyrano[3,4-f]quinoline]"
3.5,14800,"COc1cccc2c1-c1ccc3c(c1C(c1cccc(C)c1)O2)C(C)=CC(C)(C)N3 (stereo not shown) [Example 24, 2,5-Dihydro-10-methoxy-2,2,4-trimethyl-5-(3-methylphenyl)-1H-[1]benzopyrano[3,4-f]quinoline]"
1.6,173,"C=CCC1Oc2cccc(CO)c2-c2ccc3c(c21)C(C)=CC(C)(C)N3 (stereo not shown) [Example 77, 2,5-Dihydro-2,2,4-trimethyl-5-(2-propenyl)-1H-[1]benzopyrano[3,4-f]quinoline-10-methanol]"
228,≥ 10000,"C=CCC1Oc2cccc(-c3ccco3)c2-c2ccc3c(c21)C(C)=CC(C)(C)N3 (stereo not shown) [Example 326, 2,5-Dihydro-10-(2-furanyl)-5-(3-propenyl)-2,2,4-trimethyl-1H-[1]benzopyrano[3,4-f]quinoline]"
10.7,4020,"COc1cccc2c1-c1ccc3c(c1C(c1cccc(C(F)(F)F)c1)O2)C(C)=CC(C)(C)N3 (stereo not shown) [Example 21, 2,5-Dihydro-10-methoxy-2,2,4-trimethyl-5-[3-(trifluoromethyl)phenyl]-1H-[1]benzopyrano[3,4-f]quinoline]"
3.2,1610,COc1cccc2c1-c1ccc3c(c1C(=Cc1ccccc1Cl)O2)C(C)=CC(C)(C)N3 [Example 124]
